Test results: PubChem BioAssay AID2060895 (Molecular Pharmacology Branch, DTP, NCI, 2025)

System: PDC 899932-113-R3-J6 complex spheroid viability
Test: Anticancer human tumor 899932-113-R3-J6-PDC patient-derived melanoma cell line growth inhibition [RAS]
Conditions: for IC50: curve of first compound; for viability, T/C: stronger effect = lower value
In short: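 Agents were tested in combination matrices in half-log decrements from a top concentration at or near clinical Cmax (10 microM if undetermined). Targets were multi-cell spheroids of tumour lines plus HUVEC and MSC stromal cells.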

[1] = second compound 0.000949 µM, first compound 0.0316 µM
[2] = second compound 0.000949 µM, first compound 0.1 µM
[3] = second compound 0.000949 µM, first compound 0.316 µM
[4] = second compound 0.000949 µM, first compound 1 µM
[5] = second compound 0.000949 µM, first compound 3.16 µM
[6] = second compound 0.000949 µM, first compound 10 µM
[7] = second compound 0.003 µM, first compound 0.0316 µM
[8] = second compound 0.003 µM, first compound 0.1 µM
[9] = second compound 0.003 µM, first compound 0.316 µM
[10] = second compound 0.003 µM, first compound 1 µM
[11] = second compound 0.003 µM, first compound 3.16 µM
[12] = second compound 0.003 µM, first compound 10 µM
[13] = second compound 0.00949 µM, first compound 0.0316 µM
[14] = second compound 0.00949 µM, first compound 0.1 µM
[15] = second compound 0.00949 µM, first compound 0.316 µM
[16] = second compound 0.00949 µM, first compound 1 µM
[17] = second compound 0.00949 µM, first compound 3.16 µM
[18] = second compound 0.00949 µM, first compound 10 µM
[19] = second compound 0.03 µM, first compound 0.0316 µM
[20] = second compound 0.03 µM, first compound 0.1 µM
[21] = second compound 0.03 µM, first compound 0.316 µM
[22] = second compound 0.03 µM, first compound 1 µM
[23] = second compound 0.03 µM, first compound 3.16 µM
[24] = second compound 0.03 µM, first compound 10 µM
[25] = second compound 0.0949 µM, first compound 0.0316 µM
[26] = second compound 0.0949 µM, first compound 0.1 µM
[27] = second compound 0.0949 µM, first compound 0.316 µM
[28] = second compound 0.0949 µM, first compound 1 µM
[29] = second compound 0.0949 µM, first compound 3.16 µM
[30] = second compound 0.0949 µM, first compound 10 µM
[31] = second compound 0.3 µM, first compound 0.0316 µM
[32] = second compound 0.3 µM, first compound 0.1 µM
[33] = second compound 0.3 µM, first compound 0.316 µM
[34] = second compound 0.3 µM, first compound 1 µM
[35] = second compound 0.3 µM, first compound 3.16 µM
[36] = second compound 0.3 µM, first compound 10 µM
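Throughout, for viability, T/C: spheroids exposed to agents for seven days before readout; 100% = DMSO vehicle control wells.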

Structure (SMILES): C[C@@H](NC(=O)c1ncnc(N)c1Cl)c1ncc(C(=O)Nc2cc(C(F)(F)F)c(Cl)cn2)s1 + CCn1c(-c2cccnc2C(C)OC)c2c3cc(ccc31)N1CCOC(CC(NC(=O)C(C(C)C)N(C)C(=O)C3(F)CCN(C(=O)C#CC(C)(C)N(C)C)CC3)C(=O)N3CCCC(N3)C(=O)OCC(C)(C)C2)C1
- IC50 (second compound 0.000949 µM): 9.8 µM
- IC50 (second compound 0.003 µM): 8.89 µM
- IC50 (second compound 0.00949 µM): 9.63 µM
- IC50 (second compound 0.03 µM): > 10 µM
- IC50 (second compound 0.0949 µM): > 10 µM
- IC50 (second compound 0.3 µM): > 10 µM
- viability, T/C [1]: 117%
- viability, T/C [2]: 129%
- viability, T/C [3]: 141%
- viability, T/C [4]: 141%
- viability, T/C [5]: 120%
- viability, T/C [6]: 48.9%
- viability, T/C [7]: 122%
- viability, T/C [8]: 125%
- viability, T/C [9]: 137%
- viability, T/C [10]: 150%
- viability, T/C [11]: 119%
- viability, T/C [12]: 42.2%
- viability, T/C [13]: 125%
- viability, T/C [14]: 127%
- viability, T/C [15]: 140%
- viability, T/C [16]: 139%
- viability, T/C [17]: 120%
- viability, T/C [18]: 47.1%
- viability, T/C [19]: 121%
- viability, T/C [20]: 132%
- viability, T/C [21]: 139%
- viability, T/C [22]: 141%
- viability, T/C [23]: 130%
- viability, T/C [24]: 52.5%
- viability, T/C [25]: 114%
- viability, T/C [26]: 127%
- viability, T/C [27]: 135%
- viability, T/C [28]: 138%
- viability, T/C [29]: 120%
- viability, T/C [30]: 51.6%
- viability, T/C [31]: 108%
- viability, T/C [32]: 118%
- viability, T/C [33]: 127%
- viability, T/C [34]: 134%
- viability, T/C [35]: 117%
- viability, T/C [36]: 54%

Structure (SMILES): Cc1nc(N2CCC3(CC2)COC(C)C3N)c(CO)nc1Sc1ccnc(N)c1Cl (centres undefined) + CCn1c(-c2cc(N3CCN(C)CC3)cnc2C(C)OC)c2c3cc(ccc31)-c1csc(n1)CC(NC(=O)C1CC1C)C(=O)N1CCCC(N1)C(=O)OCC(C)(C)C2
- IC50 (second compound 0.000949 µM): > 10 µM
- IC50 (second compound 0.003 µM): < 0.0316 µM
- IC50 (second compound 0.00949 µM): < 0.0316 µM
- IC50 (second compound 0.03 µM): < 0.0316 µM
- IC50 (second compound 0.0949 µM): < 0.0316 µM
- IC50 (second compound 0.3 µM): < 0.0316 µM
- viability, T/C [1]: 70.1%
- viability, T/C [2]: 71.2%
- viability, T/C [3]: 76.8%
- viability, T/C [4]: 78.6%
- viability, T/C [5]: 80%
- viability, T/C [6]: 83%
- viability, T/C [7]: 29.8%
- viability, T/C [8]: 29.9%
- viability, T/C [9]: 30.1%
- viability, T/C [10]: 31.8%
- viability, T/C [11]: 38.8%
- viability, T/C [12]: 35.3%
- viability, T/C [13]: 3.52%
- viability, T/C [14]: 3.03%
- viability, T/C [15]: 2.45%
- viability, T/C [16]: 2.29%
- viability, T/C [17]: 2.72%
- viability, T/C [18]: 2.76%
- viability, T/C [19]: 2.9%
- viability, T/C [20]: 2.41%
- viability, T/C [21]: 2.2%
- viability, T/C [22]: 2.42%
- viability, T/C [23]: 1.4%
- viability, T/C [24]: 1.8%
- viability, T/C [25]: 2.84%
- viability, T/C [26]: 2.97%
- viability, T/C [27]: 1.92%
- viability, T/C [28]: 2.03%
- viability, T/C [29]: 1.67%
- viability, T/C [30]: 0.79%
- viability, T/C [31]: 2.22%
- viability, T/C [32]: 2.77%
- viability, T/C [33]: 1.95%
- viability, T/C [34]: 2.27%
- viability, T/C [35]: 1.64%
- viability, T/C [36]: 1.71%
